According to patent US6982257B1, “Vitamin D3 derivative and its production method” (Teijin Limited, priority 1997, dated 2006):

Tests used:
[1] = test system: HL-60 cell; test: Differentiation induction of HL-60 cell, nitroblue tetrazolium (NBT) reduction activity; type: cell-based; details: HL-60, 4 days culture
Excerpt: Activities of Objective Compounds of the Present Invention on Differentiation Induction effect of HL-60 Cell
HL-60 cell was purchased from a cell bank (Japanese Cancer Research Resource Bank, Cell Number: JCRB 0085). The cell was stored as a frozen storage stock for preventing the change of cell characteristics attributable to successive cultivation. Before the initiation of experiments, the cell was defrosted, and successive cultivation was started for using the cell in the experiments. The cell which had been treated by successive culturing for about one to six months was used for the experiments. The successive culturing was carried out by centrifugally recovering cells from cultivation mixture in suspension culture, and diluting the collected cell concentrate in a fresh culture medium at a ratio of about 1/100 (1−2×10^5 cells/ml). As the culture medium, an RPMI-1640 medium containing 10% fetal bovine serum was used. Successively cultured cells were centrifugally collected, and they were dispersed in a culture medium at the concentration of 2×10^4 cells/ml. The dispersion was seeded into a 24-well culture petri dish at 1 ml/well. An ethanol solution (1×10^−9M to 1×10^−6M) of a compound of the present invention was added to this system at 1 μl/well. Further, regarding 1 α,25(OH)2D3, an ethanol solution of 1×10^−7 M to 1×10^−4 M was added at 1 μl/well, and for the control, ethanol was added at 1 μl/well. After culturing at 37° C. for 4 days under a 5% CO2 atmosphere, the cells were centrifugally collected. Nitroblue tetrazolium (NBT) reduction activity was determined as follows. That is, the collected cells were suspended in a fresh culture medium, and NBT and 12-O-tetradecanoylphorbol-13-acetate were added to the resultant suspension so that their concentrations became 0.1% and 100 nM, respectively. After the mixed suspension was incubated at 37° C. for 25 min, a cytospin sample was prepared. After air drying, it was stained with Kernechtrot, and the ratio of the positive cells of NBT reduction activity was determined under an optical microscope.
Activities of Compounds of the Present Invention on Nitroblue Tetrazolium

[2] = molecular target: T1, bovine thymus 1α,25-dihydroxyvitamin D3 receptor (VDR) (Bos taurus, UniProt Q28037); details: relative intensity ratio based on 100 for 1α,25-dihydroxyvitamin D3, from the concentration inhibiting [3H]1α,25-dihydroxyvitamin D3 (0.1 nM) binding by 50%
T1 sequence (Q28037 1-426): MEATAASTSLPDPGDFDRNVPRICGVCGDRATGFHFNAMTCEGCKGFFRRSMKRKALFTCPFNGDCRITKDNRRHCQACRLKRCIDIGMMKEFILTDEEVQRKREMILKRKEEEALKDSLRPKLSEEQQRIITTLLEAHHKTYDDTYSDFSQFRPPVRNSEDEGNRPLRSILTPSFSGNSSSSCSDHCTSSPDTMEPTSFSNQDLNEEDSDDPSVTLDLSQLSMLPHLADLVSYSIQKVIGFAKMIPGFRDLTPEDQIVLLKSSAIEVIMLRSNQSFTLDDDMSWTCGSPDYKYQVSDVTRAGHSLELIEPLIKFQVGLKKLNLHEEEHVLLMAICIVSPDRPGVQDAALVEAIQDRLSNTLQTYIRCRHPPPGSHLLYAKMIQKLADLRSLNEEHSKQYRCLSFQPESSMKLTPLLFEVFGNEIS
Method: The content (about 25 mg) of an ampule of a bovine thymus vitamin D receptor kit made by Yamasa Shoyu Ltd. was dissolved in 55 ml of a 0.05 M phosphoric acid-0.5 M potassium buffer solution (pH 7.4). Fifty μl of the ethanol solution of a compound to be tested and 500 μl of the receptor solution were pre-incubated at room temperature for 1 hr. […] To 500 μl of the supernatant, 9.5 ml of a liquid scintillation cocktail (ACS-II) was added, and the radioactivity of the resultant mixture was measured by a liquid scintillation counter.

C=C1/C(=C\C=C2/CCC[C@]3(C)[C@@H]([C@H](C)CCCC(C)(C)O)CC[C@@H]23)C[C@@H](O)C[C@@H]1O [1α,25-(OH)2VD3, 1α,25-dihydroxyvitamin D3, reference compound]
Positive cells (%) of nitroblue tetrazolium reduction activity ([1]; concentration 10^−7 M): 96.5 ± 1.0% | Positive cells (%) of nitroblue tetrazolium reduction activity ([1]; concentration 10^−8 M): 86.1 ± 2.6% | Positive cells (%) of nitroblue tetrazolium reduction activity ([1]; concentration 10^−9 M): 36.8 ± 2.0% | Positive cells (%) of nitroblue tetrazolium reduction activity ([1]; concentration 10^−10 M): 4.3 ± 1.2%

C=C1C(=CC=C2CCCC3(C)C2CCC3C(C)CCCC(C)(C)O)CC(O)C(C)C1O [Compound (1), (20R)-1β,25-dihydroxy-2β-methyl-3β vitamin D3, reference compound]
Binding Affinity for VDR [2]: 0.05

C=C1C(=CC=C2CCCC3(C)C2CCC3C(C)CCCC(C)(C)O)CC(O)C(C)C1O [Compound (2), (20R)-1α,25-dihydroxy-2β-methyl-3α vitamin D3, reference compound]
Binding Affinity for VDR [2]: 0.3

C=C1C(=CC=C2CCCC3(C)C2CCC3C(C)CCCC(C)(C)O)CC(O)C(C)C1O [Compound (3), (20R)-1β,25-dihydroxy-2β-methyl-3β vitamin D3, reference compound]
Binding Affinity for VDR [2]: 0.8

C=C1C(=CC=C2CCCC3(C)C2CCC3C(C)CCCC(C)(C)O)CC(O)C(C)C1O [Compound (4), (20R)-1α,25-dihydroxy-2α-methyl-3β vitamin D3, reference compound]
Binding Affinity for VDR [2]: 400

C=C1C(=CC=C2CCCC3(C)C2CCC3C(C)CCCC(C)(C)O)CC(O)C(C)C1O [Compound (5), (20R)-1β,25-dihydroxy-2α-methyl-3β vitamin D3, reference compound]
Binding Affinity for VDR [2]: 0.05

C=C1C(=CC=C2CCCC3(C)C2CCC3C(C)CCCC(C)(C)O)CC(O)C(C)C1O [Compound (6), (20R)-1α,25-dihydroxy-2α-methyl-3α vitamin D3, reference compound]
Binding Affinity for VDR [2]: 4

C=C1C(=CC=C2CCCC3(C)C2CCC3C(C)CCCC(C)(C)O)CC(O)C(C)C1O [Compound (7), (20R)-1β,25-dihydroxy-2α-methyl-3α vitamin D3, reference compound]
Binding Affinity for VDR [2]: 0.06

C=C1C(=CC=C2CCCC3(C)C2CCC3C(C)CCCC(C)(C)O)CC(O)C(C)C1O [Compound (65), (20R)-1α,25-dihydroxy-2β-methyl-3β vitamin D3, reference compound]
Binding Affinity for VDR [2]: 13

C=C1/C(=C\C=C2/CCC[C@]3(C)[C@@H]([C@@H](C)CCCC(C)(C)O)CC[C@@H]23)C[C@@H](O)[C@@H](C)[C@@H]1O [Compound (68), (20S)-1α,25-dihydroxy-2β-methyl-3β-vitamin D3]
Binding Affinity for VDR [2]: 160 | Positive cells (%) of nitroblue tetrazolium reduction activity ([1]; concentration 10^−9 M): 95.7 ± 1.0% | Positive cells (%) of nitroblue tetrazolium reduction activity ([1]; concentration 10^−10 M): 57.7 ± 5.0% | Positive cells (%) of nitroblue tetrazolium reduction activity ([1]; concentration 10^−11 M): 2.8 ± 0.7% | Positive cells (%) of nitroblue tetrazolium reduction activity ([1]; concentration 10^−12 M): 1.7 ± 0.3%

C=C1/C(=C\C=C2/CCC[C@]3(C)[C@@H]([C@@H](C)CCCC(C)(C)O)CC[C@@H]23)C[C@@H](O)[C@@H](C)[C@H]1O [Compound (69), (20S)-1β,25-dihydroxy-2β-methyl-3β-vitamin D3]
Binding Affinity for VDR [2]: 0.03

C=C1/C(=C\C=C2/CCC[C@]3(C)[C@@H]([C@@H](C)CCCC(C)(C)O)CC[C@@H]23)C[C@H](O)[C@@H](C)[C@@H]1O [Compound (70), (20S)-1α,25-dihydroxy-2β-methyl-3α-vitamin D3]
Binding Affinity for VDR [2]: 0.08

C=C1/C(=C\C=C2/CCC[C@]3(C)[C@@H]([C@@H](C)CCCC(C)(C)O)CC[C@@H]23)C[C@H](O)[C@@H](C)[C@H]1O [Compound (71), (20S)-1β,25-dihydroxy-2β-methyl-3α-vitamin D3]
Binding Affinity for VDR [2]: 7 | Positive cells (%) of nitroblue tetrazolium reduction activity ([1]; concentration 10^−9 M): 40.5 ± 1.8% | Positive cells (%) of nitroblue tetrazolium reduction activity ([1]; concentration 10^−10 M): 2.0 ± 1.0% | Positive cells (%) of nitroblue tetrazolium reduction activity ([1]; concentration 10^−11 M): 1.8 ± 0.8% | Positive cells (%) of nitroblue tetrazolium reduction activity ([1]; concentration 10^−12 M): 1.5 ± 0.8%

C=C1C(=CC=C2CCCC3(C)C2CCC3C(C)CCCC(C)(C)O)CC(O)C(C)C1O [Compound (72), (20S)-1α,25-dihydroxy-2α-methyl-3β-vitamin D3]
Binding Affinity for VDR [2]: 1200 | Positive cells (%) of nitroblue tetrazolium reduction activity ([1]; concentration 10^−9 M): 96.2 ± 2.0% | Positive cells (%) of nitroblue tetrazolium reduction activity ([1]; concentration 10^−10 M): 95.7 ± 2.3% | Positive cells (%) of nitroblue tetrazolium reduction activity ([1]; concentration 10^−11 M): 94.4 ± 1.8% | Positive cells (%) of nitroblue tetrazolium reduction activity ([1]; concentration 10^−12 M): 3.7 ± 0.8%

C=C1/C(=C\C=C2/CCC[C@]3(C)[C@@H]([C@@H](C)CCCC(C)(C)O)CC[C@@H]23)C[C@@H](O)[C@H](C)[C@H]1O [Compound (73), (20S)-1β,25-dihydroxy-2α-methyl-3β-vitamin D3]
Binding Affinity for VDR [2]: 0.05

C=C1/C(=C\C=C2/CCC[C@]3(C)[C@@H]([C@@H](C)CCCC(C)(C)O)CC[C@@H]23)C[C@H](O)[C@H](C)[C@@H]1O [Compound (74), (20S)-1α,25-dihydroxy-2α-methyl-3α-vitamin D3]
Binding Affinity for VDR [2]: 17 | Positive cells (%) of nitroblue tetrazolium reduction activity ([1]; concentration 10^−9 M): 96.4 ± 1.4% | Positive cells (%) of nitroblue tetrazolium reduction activity ([1]; concentration 10^−10 M): 16.7 ± 1.1% | Positive cells (%) of nitroblue tetrazolium reduction activity ([1]; concentration 10^−11 M): 17.0 ± 2.3% | Positive cells (%) of nitroblue tetrazolium reduction activity ([1]; concentration 10^−12 M): 6.4 ± 1.1%

C=C1/C(=C\C=C2/CCC[C@]3(C)[C@@H]([C@@H](C)CCCC(C)(C)O)CC[C@@H]23)C[C@H](O)[C@H](C)[C@H]1O [Compound (75), (20S)-1β,25-dihydroxy-2α-methyl-3α-vitamin D3]
Binding Affinity for VDR [2]: 0.03
